According to patent EP0314239A2, “Tripeptide renin inhibitors with N-terminal ureido or sulfamido groups” (Merck & Co., Inc., priority 1987, dated 1989):

Each compound was assayed against T1, renin (Homo sapiens, UniProt P00797) (assay: Renin inhibition IC50, by the methods of J. Med. Chem., 1985, 28, 1789-1790).
T1 sequence (P00797 67-406): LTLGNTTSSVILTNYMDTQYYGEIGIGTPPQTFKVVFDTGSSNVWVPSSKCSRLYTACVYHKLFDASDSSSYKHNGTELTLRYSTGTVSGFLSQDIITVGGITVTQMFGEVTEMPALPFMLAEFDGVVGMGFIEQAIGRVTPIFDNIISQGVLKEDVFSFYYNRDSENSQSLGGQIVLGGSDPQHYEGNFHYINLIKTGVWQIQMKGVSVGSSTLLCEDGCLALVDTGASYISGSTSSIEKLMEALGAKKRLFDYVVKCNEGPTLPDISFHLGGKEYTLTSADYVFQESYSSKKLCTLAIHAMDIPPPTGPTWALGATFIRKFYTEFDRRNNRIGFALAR
Type: biochemical
Description: The following examples are intended to be representative and not limiting. ICso results were obtained according to the methods described in J. Med. Chem., 1985, 28, 1789-1790.

| Compound | IC50 [nM] |
| --- | --- |
| CC[C@H](C)CNC(=O)C[C@H](O)[C@H](CC1CCCCC1)NC(=O)[C@H](Cc1c[nH]cn1)NC(=O)[C@H](Cc1ccccc1)NC(=O)N1CCOCC1 [Example 4, N-(Morpholin-4-yl)carbonyl-Phenylalanyl-Histidyl-ACHPA-2(S)-Methylbutylamide] | 5 |
| C[N+]12CCC(CC1)C(NC(=O)C[C@H](O)[C@H](CC1CCCCC1)NC(=O)[C@H](Cc1c[nH]cn1)NC(=O)[C@H](Cc1ccccc1)NC(=O)N1CCOCC1)C2 (stereo partly drawn) [Example 7, N-(morpholin-4-yl)carbonyl-L-Phenylalanyl-L-Histidyl(3S,4S)-4-Amino-5-Cyclohexyl-3-Hydroxypentanoyl-1-Methylquinuclidinium-3-yl-Amide Acetate] | 29 |
| CC[C@H](C)CNC(=O)C[C@H](O)[C@H](CC1CCCCC1)NC(=O)[C@H](Cc1c[nH]cn1)NC(=O)[C@H](Cc1ccccc1)NC(=O)N1CCNCC1 [Example 6, N-(Piperazin-1-yl)carbonyl-Phenylalanyl-Histidyl-ACHPA-2(S)-Methylbutylamide] | 43 |
| O=C(C[C@H](O)[C@H](CC1CCCCC1)NC(=O)[C@H](Cc1c[nH]cn1)NC(=O)[C@H](Cc1ccccc1)NC(=O)N1CCOCC1)NC1CN2CCC1CC2 (stereo partly drawn) [N-(morpholin-4-yl)carbonyl-L-Phenylalanyl-L-Histidyl-(3S,4S)-4-amino-5-cyclohexyl-3-hydroxy pentanoyl-3-quinuclidinyl amide] | 30 |
| CC[C@H](C)CNC(=O)C[C@H](O)[C@H](CC1CCCCC1)NC(=O)[C@H](Cc1c[nH]cn1)NC(=O)[C@H](Cc1ccccc1)NC(=O)N1CCN(C(=O)OC(C)(C)C)CC1 [Example 5, N-(4-Boc-Piperizinyl)Carbonyl-Phenylalanyl-Histidyl-ACHPA-2(S)Methylbutylamide] | 10 |
